1 compound from patent US20230255966A1, “A COMBINATION OF A CBP/P300 BROMODOMAIN INHIBITOR AND AN EGFR INHIBITOR FOR USE IN TREATING EGFR-MUTANT NSCLC” (TOLREMO THERAPEUTICS AG, priority 2020, published 2023) can be followed below.

The experiment has as its system NCI-H1975 cells. Description: Label-free determination of cell proliferation (CELIGO). The experiment is classed as cell-based.

Turning to `CO[C@H]1CC[C@H](n2c([C@@H]3CCCC(=O)N3c3ccc(F)c(F)c3)nc3cc(-c4c(C)noc4C)ccc32)CC1` [CCS1477], the Growth long-term result (NCI-H1975, 50 nM osimertinib with 2.0, 0.5 or 0.125 μM co-treatment (FIG. 5)) is reported as “delayed”. For the same compound, where the note is “NCI-H1975, 2 μM single agent (FIG. 5)”, the “Effect on cell numbers on their own” value is “no/weak effect on cell numbers”.
